Source: ChEMBL document CHEMBL4649983, “Selective targeting of the BRG/PB1 bromodomains impairs embryonic and trophoblast stem cell maintenance” (Sci Adv, 2015)
Values joined by “and” are separate entries in the source; they are usually repeats but may differ in a detail not shown here. Equal entries are not always repeated.

Legend:
[1] = biological target: Histone-lysine N-methyltransferase ASH1L (Homo sapiens) (UniProt Q9NR48); conditions: Compound concentration 10.0 uM, Protein concentration 2.0 uM
[2] = biological target: ATPase family AAA domain-containing protein 2B (Homo sapiens) (UniProt Q9ULI0); conditions: Compound concentration 10.0 uM, Protein concentration 2.0 uM
[3] = biological target: Bromodomain and WD repeat-containing protein 1 (Homo sapiens) (UniProt Q9NSI6); conditions: Compound concentration 10.0 uM, Protein concentration 2.0 uM
[4] = biological target: Bromodomain testis-specific protein (Homo sapiens) (UniProt Q58F21); conditions: Compound concentration 10.0 uM, Protein concentration 2.0 uM
[5] = biological target: Nuclear body protein SP140 (Homo sapiens) (UniProt Q13342); conditions: Compound concentration 10.0 uM, Protein concentration 2.0 uM
[6] = biological target: PH-interacting protein (Homo sapiens) (UniProt Q8WWQ0); conditions: Compound concentration 10.0 uM, Protein concentration 2.0 uM
[7] = biological target: Bromodomain-containing protein 2 (Homo sapiens) (UniProt P25440); conditions: Compound concentration 10.0 uM, Protein concentration 2.0 uM
[8] = biological target: Protein polybromo-1 (Homo sapiens) (UniProt Q86U86); assay: Thermal Shift Assay. Domain start/stop: H23-D159; conditions: Compound concentration 10.0 uM, Protein concentration 2.0 uM
[9] = biological target: Protein polybromo-1 (Homo sapiens) (UniProt Q86U86); assay: Thermal Shift Assay. Domain start/stop: R487-D598; conditions: Compound concentration 10.0 uM, Protein concentration 2.0 uM
[10] = biological target: Bromodomain-containing protein 4 (Homo sapiens) (UniProt O60885); conditions: Compound concentration 10.0 uM, Protein concentration 2.0 uM
[11] = biological target: Histone acetyltransferase p300 (Homo sapiens) (UniProt Q09472); conditions: Compound concentration 10.0 uM, Protein concentration 2.0 uM
[12] = biological target: Transcription intermediary factor 1-alpha (Homo sapiens) (UniProt O15164); conditions: Compound concentration 10.0 uM, Protein concentration 2.0 uM
[13] = biological target: Protein polybromo-1 (Homo sapiens) (UniProt Q86U86); conditions: Compound concentration 10.0 uM, Protein concentration 2.0 uM
[14] = biological target: Bromodomain adjacent to zinc finger domain protein 1A (Homo sapiens) (UniProt Q9NRL2); conditions: Compound concentration 10.0 uM, Protein concentration 2.0 uM
[15] = biological target: Protein polybromo-1 (Homo sapiens) (UniProt Q86U86); conditions: Compound concentration 10.0 uM, Protein concentration 2.0 uM; remark: listed apart in the source
[16] = biological target: Transcription intermediary factor 1-beta (Homo sapiens) (UniProt Q13263); conditions: Compound concentration 10.0 uM, Protein concentration 2.0 uM
[17] = biological target: Bromodomain-containing protein 3 (Homo sapiens) (UniProt Q15059); conditions: Compound concentration 10.0 uM, Protein concentration 2.0 uM
[18] = biological target: Transcription initiation factor TFIID subunit 1 (Homo sapiens) (UniProt P21675); conditions: Compound concentration 10.0 uM, Protein concentration 2.0 uM
[19] = biological target: Histone acetyltransferase p300 (Homo sapiens) (UniProt Q09472); assay: Thermal Shift Assay. Domain start/stop: A1040-S1171; conditions: Compound concentration 10.0 uM, Protein concentration 2.0 uM
[20] = biological target: Bromodomain-containing protein 3 (Homo sapiens) (UniProt Q15059); assay: Thermal Shift Assay. Domain start/stop: P24-E144; conditions: Compound concentration 10.0 uM, Protein concentration 2.0 uM
[21] = biological target: Bromodomain adjacent to zinc finger domain protein 2A (Homo sapiens) (UniProt Q9UIF9); conditions: Compound concentration 10.0 uM, Protein concentration 2.0 uM
[22] = biological target: Bromodomain-containing protein 1 (Homo sapiens) (UniProt O95696); conditions: Compound concentration 10.0 uM, Protein concentration 2.0 uM
[23] = biological target: ATPase family AAA domain-containing protein 2 (Homo sapiens) (UniProt Q6PL18); conditions: Compound concentration 10.0 uM, Protein concentration 2.0 uM
[24] = biological target: Bromodomain-containing protein 4 (Homo sapiens) (UniProt O60885); conditions: Compound concentration 10.0 uM, Protein concentration 2.0 uM; remark: listed apart in the source
[25] = biological target: Bromodomain and WD repeat-containing protein 3 (Homo sapiens) (UniProt Q6RI45); conditions: Compound concentration 10.0 uM, Protein concentration 2.0 uM
[26] = biological target: Bromodomain adjacent to zinc finger domain protein 2B (Homo sapiens) (UniProt Q9UIF8); conditions: Compound concentration 10.0 uM, Protein concentration 2.0 uM
[27] = biological target: SWI/SNF-related matrix-associated actin-dependent regulator of chromatin subfamily A member 2 (Homo sapiens) (UniProt P51531); assay: Thermal Shift Assay. Domain start/stop: A1373-E1493; conditions: Compound concentration 10.0 uM, Protein concentration 2.0 uM
[28] = biological target: PH-interacting protein (Homo sapiens) (UniProt Q8WWQ0); conditions: Compound concentration 20.0 uM, Protein concentration 25.0 uM
Description: Alphascreen assay. Domain start/stop: D1302-R1434

[29] = biological target: Histone acetyltransferase KAT2B (Homo sapiens) (UniProt Q92831); conditions: Compound concentration 10.0 uM, Protein concentration 2.0 uM
[30] = biological target: Histone acetyltransferase KAT2A (Homo sapiens) (UniProt Q92830); conditions: Compound concentration 10.0 uM, Protein concentration 2.0 uM
[31] = biological target: Protein polybromo-1 (Homo sapiens) (UniProt Q86U86); conditions: Compound concentration 10.0 uM, Protein concentration 2.0 uM; remark: listed apart in the source
[32] = biological target: Transcription intermediary factor 1-alpha (Homo sapiens) (UniProt O15164); conditions: Compound concentration 10.0 uM, Protein concentration 2.0 uM; remark: listed apart in the source
[33] = biological target: Chromatin remodeling regulator CECR2 (Homo sapiens) (UniProt Q9BXF3); conditions: Compound concentration 10.0 uM, Protein concentration 2.0 uM
[34] = biological target: Protein polybromo-1 (Homo sapiens) (UniProt Q86U86); conditions: Protein concentration 2.0 uM
[35] = biological target: Transcription initiation factor TFIID subunit 1-like (Homo sapiens) (UniProt Q8IZX4); conditions: Compound concentration 10.0 uM, Protein concentration 2.0 uM
[36] = biological target: SWI/SNF-related matrix-associated actin-dependent regulator of chromatin subfamily A member 2 (Homo sapiens) (UniProt P51531); conditions: Compound concentration 10.0 uM, Protein concentration 2.0 uM
[37] = biological target: Bromodomain-containing protein 9 (Homo sapiens) (UniProt Q9H8M2); conditions: Compound concentration 10.0 uM, Protein concentration 2.0 uM
[38] = biological target: Tripartite motif-containing protein 66 (Homo sapiens) (UniProt O15016); assay: Thermal Shift Assay. Domain start/stop: M1091-S1218; conditions: Compound concentration 10.0 uM, Protein concentration 2.0 uM
[39] = biological target: Bromodomain-containing protein 2 (Homo sapiens) (UniProt P25440); conditions: Compound concentration 10.0 uM, Protein concentration 2.0 uM; remark: listed apart in the source
[40] = biological target: Protein polybromo-1 (Homo sapiens) (UniProt Q86U86); conditions: Protein concentration 2.0 uM; remark: listed apart in the source
Peregrin (Homo sapiens) [41] = biological target: Peregrin (Homo sapiens) (UniProt P55201); conditions: Compound concentration 10.0 uM, Protein concentration 2.0 uM
[42] = biological target: CREB-binding protein (Homo sapiens) (UniProt Q92793); conditions: Compound concentration 10.0 uM, Protein concentration 2.0 uM
Peregrin (Homo sapiens) [43] = biological target: Peregrin (Homo sapiens) (UniProt P55201); conditions: Compound concentration 10.0 uM, Protein concentration 2.0 uM; remark: listed apart in the source
[44] = biological target: Transcription initiation factor TFIID subunit 1-like (Homo sapiens) (UniProt Q8IZX4); conditions: Compound concentration 10.0 uM, Protein concentration 2.0 uM; remark: listed apart in the source
[45] = biological target: Bromodomain testis-specific protein (Homo sapiens) (UniProt Q58F21); conditions: Compound concentration 10.0 uM, Protein concentration 2.0 uM; remark: listed apart in the source
[46] = biological target: Nucleosome-remodeling factor subunit BPTF (Homo sapiens) (UniProt Q12830); conditions: Compound concentration 10.0 uM, Protein concentration 2.0 uM
[47] = biological target: Nuclear body protein SP140-like protein (Homo sapiens) (UniProt Q9H930); conditions: Compound concentration 10.0 uM, Protein concentration 2.0 uM
[48] = biological target: Bromodomain and PHD finger-containing protein 3 (Homo sapiens) (UniProt Q9ULD4); conditions: Compound concentration 10.0 uM, Protein concentration 2.0 uM
[49] = biological target: SWI/SNF-related matrix-associated actin-dependent regulator of chromatin subfamily A member 4 (Homo sapiens) (UniProt P51532); conditions: Compound concentration 10.0 uM, Protein concentration 2.0 uM
[50] = biological target: Transcription initiation factor TFIID subunit 1 (Homo sapiens) (UniProt P21675); conditions: Compound concentration 10.0 uM, Protein concentration 2.0 uM; remark: listed apart in the source
[51] = Compound concentration 100.0 uM

Chain of Protein polybromo-1 (Homo sapiens) (Q86U86 whole entry, the tested form may be a part): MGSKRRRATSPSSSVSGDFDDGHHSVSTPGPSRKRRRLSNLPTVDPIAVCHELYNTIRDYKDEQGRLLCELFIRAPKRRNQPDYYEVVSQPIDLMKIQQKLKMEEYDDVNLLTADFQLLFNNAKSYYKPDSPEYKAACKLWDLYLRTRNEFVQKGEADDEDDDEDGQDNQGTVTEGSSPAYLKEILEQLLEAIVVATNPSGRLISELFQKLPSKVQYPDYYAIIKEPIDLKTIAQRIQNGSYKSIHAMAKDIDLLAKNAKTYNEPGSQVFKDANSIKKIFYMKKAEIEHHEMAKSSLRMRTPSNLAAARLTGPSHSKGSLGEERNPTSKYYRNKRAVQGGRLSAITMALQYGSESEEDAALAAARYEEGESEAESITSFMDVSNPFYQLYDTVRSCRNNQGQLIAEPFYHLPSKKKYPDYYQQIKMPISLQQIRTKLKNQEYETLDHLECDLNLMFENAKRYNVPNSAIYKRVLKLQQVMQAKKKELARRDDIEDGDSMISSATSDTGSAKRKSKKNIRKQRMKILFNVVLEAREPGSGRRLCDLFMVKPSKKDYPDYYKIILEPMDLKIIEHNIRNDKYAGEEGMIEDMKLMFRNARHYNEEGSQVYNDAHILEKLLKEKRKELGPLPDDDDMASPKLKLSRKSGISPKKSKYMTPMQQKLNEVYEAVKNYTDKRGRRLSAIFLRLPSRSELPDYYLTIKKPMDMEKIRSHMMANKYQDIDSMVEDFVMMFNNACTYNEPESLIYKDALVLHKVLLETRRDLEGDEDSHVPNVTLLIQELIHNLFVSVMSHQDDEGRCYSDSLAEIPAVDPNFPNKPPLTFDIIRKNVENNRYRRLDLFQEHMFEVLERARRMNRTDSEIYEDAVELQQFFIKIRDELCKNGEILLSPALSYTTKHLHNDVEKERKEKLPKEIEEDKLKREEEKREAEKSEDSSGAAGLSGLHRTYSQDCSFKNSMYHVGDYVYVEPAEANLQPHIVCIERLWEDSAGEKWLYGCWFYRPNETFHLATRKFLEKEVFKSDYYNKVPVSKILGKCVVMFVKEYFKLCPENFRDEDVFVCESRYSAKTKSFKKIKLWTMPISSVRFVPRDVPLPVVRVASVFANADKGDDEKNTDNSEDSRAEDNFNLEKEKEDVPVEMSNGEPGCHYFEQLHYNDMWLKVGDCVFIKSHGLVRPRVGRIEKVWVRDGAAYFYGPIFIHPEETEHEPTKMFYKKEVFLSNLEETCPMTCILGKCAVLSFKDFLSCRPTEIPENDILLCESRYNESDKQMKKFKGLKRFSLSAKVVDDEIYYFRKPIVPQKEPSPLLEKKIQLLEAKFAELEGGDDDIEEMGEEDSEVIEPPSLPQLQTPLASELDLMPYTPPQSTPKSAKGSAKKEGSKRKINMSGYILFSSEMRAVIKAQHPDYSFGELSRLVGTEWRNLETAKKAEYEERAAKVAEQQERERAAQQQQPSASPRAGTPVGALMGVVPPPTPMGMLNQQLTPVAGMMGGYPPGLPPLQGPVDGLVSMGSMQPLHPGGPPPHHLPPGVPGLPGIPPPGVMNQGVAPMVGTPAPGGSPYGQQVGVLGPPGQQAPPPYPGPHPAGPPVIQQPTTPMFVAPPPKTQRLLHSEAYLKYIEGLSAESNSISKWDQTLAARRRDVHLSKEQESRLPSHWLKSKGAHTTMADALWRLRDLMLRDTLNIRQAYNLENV
Chain of SWI/SNF-related matrix-associated actin-dependent regulator of chromatin subfamily A member 4 (Homo sapiens) (P51532 whole entry): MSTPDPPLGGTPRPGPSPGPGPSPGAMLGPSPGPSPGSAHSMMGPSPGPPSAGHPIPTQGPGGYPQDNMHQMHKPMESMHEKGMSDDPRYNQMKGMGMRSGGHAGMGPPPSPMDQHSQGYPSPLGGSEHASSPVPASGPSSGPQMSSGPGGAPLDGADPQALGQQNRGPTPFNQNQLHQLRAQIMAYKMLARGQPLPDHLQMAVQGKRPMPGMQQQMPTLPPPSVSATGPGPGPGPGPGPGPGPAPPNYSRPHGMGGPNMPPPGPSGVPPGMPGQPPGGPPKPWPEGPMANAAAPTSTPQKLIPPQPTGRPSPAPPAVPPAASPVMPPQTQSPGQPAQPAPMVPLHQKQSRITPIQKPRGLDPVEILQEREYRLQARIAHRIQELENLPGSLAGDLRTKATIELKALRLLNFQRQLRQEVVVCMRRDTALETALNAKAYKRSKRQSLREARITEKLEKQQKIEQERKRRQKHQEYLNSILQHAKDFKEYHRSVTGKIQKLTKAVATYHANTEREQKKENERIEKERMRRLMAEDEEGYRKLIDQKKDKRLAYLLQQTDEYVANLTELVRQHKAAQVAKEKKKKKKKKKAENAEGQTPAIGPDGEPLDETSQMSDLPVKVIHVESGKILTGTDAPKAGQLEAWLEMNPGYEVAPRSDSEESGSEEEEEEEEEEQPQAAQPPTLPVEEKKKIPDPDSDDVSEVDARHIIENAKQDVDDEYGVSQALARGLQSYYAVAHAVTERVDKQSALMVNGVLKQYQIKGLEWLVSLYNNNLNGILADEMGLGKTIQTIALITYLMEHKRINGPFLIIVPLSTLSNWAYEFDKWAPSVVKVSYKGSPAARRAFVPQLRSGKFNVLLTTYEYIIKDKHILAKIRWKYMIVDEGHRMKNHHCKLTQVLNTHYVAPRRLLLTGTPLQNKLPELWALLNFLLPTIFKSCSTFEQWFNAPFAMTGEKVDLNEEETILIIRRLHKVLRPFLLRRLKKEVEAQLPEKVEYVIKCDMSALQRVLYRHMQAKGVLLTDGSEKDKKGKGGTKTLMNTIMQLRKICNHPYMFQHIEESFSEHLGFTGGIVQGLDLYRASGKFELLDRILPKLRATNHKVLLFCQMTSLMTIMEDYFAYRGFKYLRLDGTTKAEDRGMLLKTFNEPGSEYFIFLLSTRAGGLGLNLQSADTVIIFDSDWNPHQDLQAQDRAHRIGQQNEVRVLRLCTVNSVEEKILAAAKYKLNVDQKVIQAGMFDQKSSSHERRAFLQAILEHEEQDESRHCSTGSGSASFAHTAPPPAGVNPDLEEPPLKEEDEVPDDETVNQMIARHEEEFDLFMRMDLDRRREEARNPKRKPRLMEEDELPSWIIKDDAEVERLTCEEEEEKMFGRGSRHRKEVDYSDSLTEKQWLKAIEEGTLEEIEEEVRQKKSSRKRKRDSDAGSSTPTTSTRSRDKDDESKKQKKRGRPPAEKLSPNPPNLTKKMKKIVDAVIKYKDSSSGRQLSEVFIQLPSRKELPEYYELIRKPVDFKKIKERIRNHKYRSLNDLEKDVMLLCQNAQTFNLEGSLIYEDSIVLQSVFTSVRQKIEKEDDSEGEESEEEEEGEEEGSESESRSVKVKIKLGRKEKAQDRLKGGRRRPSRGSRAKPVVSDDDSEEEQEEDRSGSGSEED
Chain of SWI/SNF-related matrix-associated actin-dependent regulator of chromatin subfamily A member 2 (Homo sapiens) (P51531 whole entry): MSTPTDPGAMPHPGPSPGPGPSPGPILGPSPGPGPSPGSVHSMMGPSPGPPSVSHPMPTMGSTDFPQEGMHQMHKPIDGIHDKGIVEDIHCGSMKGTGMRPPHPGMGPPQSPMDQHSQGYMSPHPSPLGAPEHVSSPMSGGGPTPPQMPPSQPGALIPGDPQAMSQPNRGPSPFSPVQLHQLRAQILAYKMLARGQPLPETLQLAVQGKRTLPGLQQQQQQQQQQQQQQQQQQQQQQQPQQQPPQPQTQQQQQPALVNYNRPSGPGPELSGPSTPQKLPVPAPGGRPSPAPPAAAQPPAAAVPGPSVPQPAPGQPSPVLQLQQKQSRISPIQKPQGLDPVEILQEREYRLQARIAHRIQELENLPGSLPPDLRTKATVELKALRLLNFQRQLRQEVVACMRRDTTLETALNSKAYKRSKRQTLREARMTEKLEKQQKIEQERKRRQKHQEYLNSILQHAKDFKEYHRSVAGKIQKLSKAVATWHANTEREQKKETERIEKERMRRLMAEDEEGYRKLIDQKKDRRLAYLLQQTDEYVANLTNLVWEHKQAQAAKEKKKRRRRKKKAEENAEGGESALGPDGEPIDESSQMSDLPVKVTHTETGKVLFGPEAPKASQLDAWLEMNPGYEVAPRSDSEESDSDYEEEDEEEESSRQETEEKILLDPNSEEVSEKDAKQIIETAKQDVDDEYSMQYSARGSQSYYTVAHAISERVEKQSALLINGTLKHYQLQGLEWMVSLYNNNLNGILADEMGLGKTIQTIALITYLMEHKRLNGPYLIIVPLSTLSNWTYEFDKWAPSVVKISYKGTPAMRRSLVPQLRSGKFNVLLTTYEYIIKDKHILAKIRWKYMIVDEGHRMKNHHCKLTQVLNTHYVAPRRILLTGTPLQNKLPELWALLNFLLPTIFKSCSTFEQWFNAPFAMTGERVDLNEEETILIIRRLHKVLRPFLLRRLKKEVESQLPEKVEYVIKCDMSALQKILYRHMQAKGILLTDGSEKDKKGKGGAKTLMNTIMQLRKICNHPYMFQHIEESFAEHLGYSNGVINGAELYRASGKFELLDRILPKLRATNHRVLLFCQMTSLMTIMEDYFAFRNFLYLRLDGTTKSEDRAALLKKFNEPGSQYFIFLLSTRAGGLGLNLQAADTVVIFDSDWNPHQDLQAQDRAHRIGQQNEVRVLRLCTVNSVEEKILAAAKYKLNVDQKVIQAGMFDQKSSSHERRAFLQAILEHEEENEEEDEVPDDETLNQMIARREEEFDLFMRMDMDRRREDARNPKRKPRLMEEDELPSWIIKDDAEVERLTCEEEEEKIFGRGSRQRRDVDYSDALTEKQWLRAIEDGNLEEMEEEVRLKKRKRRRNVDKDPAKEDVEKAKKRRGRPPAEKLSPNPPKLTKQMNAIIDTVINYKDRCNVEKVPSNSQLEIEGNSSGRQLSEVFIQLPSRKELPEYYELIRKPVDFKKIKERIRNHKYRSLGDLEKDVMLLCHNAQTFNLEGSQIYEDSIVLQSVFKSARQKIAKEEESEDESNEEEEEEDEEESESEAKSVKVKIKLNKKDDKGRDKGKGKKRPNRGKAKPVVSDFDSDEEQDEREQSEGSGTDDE

ΔTm [1]: 0.52 °C
ΔTm [2]: -0.01 °C
ΔTm [3]: 0.96 °C
ΔTm [4]: 1.04 °C
ΔTm [5]: 1.62 °C
ΔTm [6]: 1.62 °C
ΔTm [7]: 0 °C
ΔTm [8]: 0.05 °C
ΔTm [9]: 0.77 °C
ΔTm [10]: 0.56 °C
ΔTm [11]: 0.24 °C
ΔTm [12]: 0.79 °C
ΔTm [13]: 0.54 °C
ΔTm [14]: 0.92 °C
ΔTm [15]: 0.85 °C
ΔTm [16]: 0.43 °C
ΔTm [17]: 0.84 °C
ΔTm [18]: 0.75 °C
ΔTm [19]: 0.19 °C
ΔTm [20]: 0.14 °C
ΔTm [21]: 0.02 °C
ΔTm [22]: 0.2 °C and 0.15 °C
ΔTm [23]: 0.59 °C and -0.66 °C
ΔTm [24]: 0.36 °C and -0.62 °C
ΔTm [25]: 1.25 °C
ΔTm [26]: 0.24 °C
ΔTm [27]: 5.23 °C
ΔTm [28]: -0.35 °C
ΔTm [29]: 0.71 °C and -0.1 °C
ΔTm [30]: 0.77 °C
ΔTm [31]: 10 °C
ΔTm [32]: 0.65 °C
ΔTm [33]: 0.39 °C
ΔTm ([34]; Compound concentration 10.0 uM): 0.98 °C
ΔTm [34, 51]: 2.54 °C
ΔTm [35]: 1.1 °C
ΔTm [36]: 6.62 °C and 8.52 °C
ΔTm [37]: 1.22 °C and 0.26 °C
ΔTm [38]: 0.5 °C
ΔTm [39]: 0.4 °C
ΔTm ([40]; Compound concentration 10.0 uM): 1.13 °C
ΔTm [40, 51]: 4.63 °C
ΔTm (Peregrin (Homo sapiens) [41]): -0.08 °C
ΔTm [42]: -0.23 °C and 0.38 °C
ΔTm (Peregrin (Homo sapiens) [43]): 1.12 °C
ΔTm [44]: 0.34 °C
ΔTm [45]: 0.83 °C
ΔTm [46]: 0.61 °C
ΔTm [47]: 1.02 °C
ΔTm [48]: 1.15 °C
ΔTm [49]: 5.19 °C and 7.18 °C (2×)
ΔTm [50]: -0.08 °C
Structure (SMILES): O=C(/C=C/N1C[C@H]2C[C@@H]1CN2c1ccccn1)c1ccccc1O
